Laboratory results from ChEMBL document CHEMBL3885861, “Open TG-GATES”.

Species on record: Rattus norvegicus
Assay: Open TG-GATES - Regimen: Single
Format: toxicity, organism-based, Sprague-Dawley
Parameters: regimen Single, gender Male, age 6 weeks
Conditions: in vivo, po, 2 mg/kg, route gavage, dose level Low; for APTT / Bas / Eos / Fbg / Hb / Lym / MCH / MCHC / MCV / Mono / Neu / PT / Plat / RBC / Ret / WBC: tissue Blood; for KIDNEY_L / KIDNEY_R / KIDNEY_TOTAL: tissue Kidney; for LIVER: tissue Liver; for ALP / ALT / AST / BUN / CRE / Ca / Cl / DBIL / GLC / IP / K / LDH / Na / PL / RALB / TBIL / TC / TG / TP / gamma-GTP: tissue Plasma

`OCCN1CCN(CCCN2c3ccccc3Sc3ccc(C(F)(F)F)cc32)CC1` [FLUPHENAZINE] showed a TERMINAL_BW (3 h) of 193.4 g, an APTT (3 h) of 16.5 s and a Bas (3 h) of 0%. For the same molecule, the Eos (3 h) was 0.8%, the Fbg (3 h) was 231.2 mg/dL and the Hb (3 h) was 13.2 g/dL. The Lym (3 h) was 76.6%, the MCH (3 h) was 21.9 pg and the MCHC (3 h) was 33.2%. The MCV (3 h) was 65.9 fL, the Mono (3 h) was 8.2% and the Neu (3 h) was 14.6%. The PT (3 h) was 12.5 s, the Plat (3 h) was 111 x10_4/uL and the RBC (3 h) was 605.2 x10_4/ul. For the same molecule, the Ret (3 h) was 7.9%, the WBC (3 h) was 105.8 x10_2/uL and the KIDNEY_L (3 h) was 0.9 g. The KIDNEY_R (3 h) was 0.9 g, the KIDNEY_TOTAL (3 h) was 1.8 g and the LIVER (3 h) was 8.9 g. It also gave an ALP (3 h) of 678.4 IU/L, an ALT (3 h) of 29.6 IU/L and an AST (3 h) of 56.4 IU/L. The BUN (3 h) was 10.8 mg/dL, the CRE (3 h) was 0.5 mg/dL and the Ca (3 h) was 10.5 mg/dL. The Cl (3 h) was 105.2 meq/L, the DBIL (3 h) was 0.012 mg/dL and the GLC (3 h) was 193.4 mg/dL. It also gave an IP (3 h) of 10.4 mg/dL, a K (3 h) of 4.8 meq/L and an LDH (3 h) of 84 IU/L. It also gave a Na (3 h) of 137.8 meq/L, a PL (3 h) of 148 mg/dL and an RALB (3 h) of 3.9 g/dL. For the same molecule, the TBIL (3 h) was 0.3 mg/dL, the TC (3 h) was 88.8 mg/dL and the TG (3 h) was 40 mg/dL. The TP (3 h) was 5.6 g/dL, the gamma-GTP (3 h) was 2.4 IU/L and the TERMINAL_BW (6 h) was 197 g. It also gave an APTT (6 h) of 16.5 s, a Bas (6 h) of 0% and an Eos (6 h) of 0.8%. The Fbg (6 h) was 220.8 mg/dL, the Hb (6 h) was 13 g/dL and the Lym (6 h) was 75.4%. For the same molecule, the MCH (6 h) was 21.5 pg, the MCHC (6 h) was 33% and the MCV (6 h) was 65.3 fL. The Mono (6 h) was 8.6%, the Neu (6 h) was 15.6% and the PT (6 h) was 12.4 s. It also gave a Plat (6 h) of 113.3 x10_4/uL, an RBC (6 h) of 606.4 x10_4/ul and a Ret (6 h) of 8.7%. The WBC (6 h) was 86.8 x10_2/uL, the KIDNEY_L (6 h) was 0.9 g and the KIDNEY_R (6 h) was 0.9 g. For the same molecule, the KIDNEY_TOTAL (6 h) was 1.8 g, the LIVER (6 h) was 8.5 g and the ALP (6 h) was 708.4 IU/L. The ALT (6 h) was 32.4 IU/L, the AST (6 h) was 57.2 IU/L and the BUN (6 h) was 10.2 mg/dL. For the same molecule, the CRE (6 h) was 0.5 mg/dL, the Ca (6 h) was 10.2 mg/dL and the Cl (6 h) was 105.8 meq/L. It also gave a DBIL (6 h) of 0.002 mg/dL, a GLC (6 h) of 184.2 mg/dL and an IP (6 h) of 10.2 mg/dL. The K (6 h) was 4.8 meq/L, the LDH (6 h) was 84.8 IU/L and the Na (6 h) was 136.8 meq/L. For the same molecule, the PL (6 h) was 150.6 mg/dL, the RALB (6 h) was 3.7 g/dL and the TBIL (6 h) was 0.4 mg/dL. It also gave a TC (6 h) of 92.4 mg/dL, a TG (6 h) of 33.6 mg/dL and a TP (6 h) of 5.3 g/dL. It also gave a gamma-GTP (6 h) of 2.2 IU/L, a TERMINAL_BW (9 h) of 192.1 g and an APTT (9 h) of 16.7 s. For the same molecule, the Bas (9 h) was 0%, the Eos (9 h) was 0.6% and the Fbg (9 h) was 223 mg/dL. For the same molecule, the Hb (9 h) was 13.1 g/dL, the Lym (9 h) was 74.2% and the MCH (9 h) was 21.6 pg. The MCHC (9 h) was 33%, the MCV (9 h) was 65.5 fL and the Mono (9 h) was 6.6%. It also gave a Neu (9 h) of 19%, a PT (9 h) of 12.3 s and a Plat (9 h) of 113.3 x10_4/uL. For the same molecule, the RBC (9 h) was 609.2 x10_4/ul, the Ret (9 h) was 7.9% and the WBC (9 h) was 62.2 x10_2/uL. It also gave a KIDNEY_L (9 h) of 0.9 g, a KIDNEY_R (9 h) of 0.9 g and a KIDNEY_TOTAL (9 h) of 1.8 g. The LIVER (9 h) was 8.1 g, the ALP (9 h) was 829.8 IU/L and the ALT (9 h) was 27.4 IU/L. It also gave an AST (9 h) of 54.4 IU/L, a BUN (9 h) of 9 mg/dL and a CRE (9 h) of 0.5 mg/dL. For the same molecule, the Ca (9 h) was 9.9 mg/dL, the Cl (9 h) was 104.4 meq/L and the DBIL (9 h) was 0.022 mg/dL. It also gave a GLC (9 h) of 176.8 mg/dL, an IP (9 h) of 10 mg/dL and a K (9 h) of 4.5 meq/L. For the same molecule, the LDH (9 h) was 81.6 IU/L, the Na (9 h) was 137.2 meq/L and the PL (9 h) was 135.4 mg/dL. The RALB (9 h) was 3.6 g/dL, the TBIL (9 h) was 0.3 mg/dL and the TC (9 h) was 79.4 mg/dL. The TG (9 h) was 33.2 mg/dL, the TP (9 h) was 5.3 g/dL and the gamma-GTP (9 h) was 2.2 IU/L. The TERMINAL_BW (24 h) was 213 g, the APTT (24 h) was 17 s and the Bas (24 h) was 0%. It also gave an Eos (24 h) of 0.8%, a Fbg (24 h) of 209.8 mg/dL and a Hb (24 h) of 13.1 g/dL. For the same molecule, the Lym (24 h) was 86.2%, the MCH (24 h) was 21.7 pg and the MCHC (24 h) was 33.2%. It also gave an MCV (24 h) of 65.4 fL, a Mono (24 h) of 4% and a Neu (24 h) of 9.2%. The PT (24 h) was 12.2 s, the Plat (24 h) was 117 x10_4/uL and the RBC (24 h) was 605.6 x10_4/ul. For the same molecule, the Ret (24 h) was 7.7%, the WBC (24 h) was 112.3 x10_2/uL and the KIDNEY_L (24 h) was 0.9 g. For the same molecule, the KIDNEY_R (24 h) was 0.9 g, the KIDNEY_TOTAL (24 h) was 1.9 g and the LIVER (24 h) was 10.8 g. It also gave an ALP (24 h) of 934.6 IU/L, an ALT (24 h) of 32.6 IU/L and an AST (24 h) of 56.6 IU/L. For the same molecule, the BUN (24 h) was 22.2 mg/dL, the CRE (24 h) was 0.5 mg/dL and the Ca (24 h) was 11 mg/dL. It also gave a Cl (24 h) of 104.2 meq/L, a DBIL (24 h) of 0.014 mg/dL and a GLC (24 h) of 178.8 mg/dL. For the same molecule, the IP (24 h) was 7.5 mg/dL, the K (24 h) was 5.1 meq/L and the LDH (24 h) was 92.8 IU/L. It also gave a Na (24 h) of 136.6 meq/L, a PL (24 h) of 166.6 mg/dL and an RALB (24 h) of 4.1 g/dL. For the same molecule, the TBIL (24 h) was 0.3 mg/dL, the TC (24 h) was 82.6 mg/dL and the TG (24 h) was 139.2 mg/dL. For the same molecule, the TP (24 h) was 6 g/dL and the gamma-GTP (24 h) was 1.6 IU/L.
